Experimental data: ChEMBL document CHEMBL4507280 (2021)

Legend:
Details in all cases: Compound concentration 10.0 uM
[1] = molecular target: Delta-type opioid receptor (Homo sapiens) (UniProt P41143)
[2] = molecular target: T1, Muscarinic acetylcholine receptor M2 (Homo sapiens) (UniProt P08172); experiment: M2/HU Eurofins-Panlabs selectivity data (BI)
T1 sequence (whole entry): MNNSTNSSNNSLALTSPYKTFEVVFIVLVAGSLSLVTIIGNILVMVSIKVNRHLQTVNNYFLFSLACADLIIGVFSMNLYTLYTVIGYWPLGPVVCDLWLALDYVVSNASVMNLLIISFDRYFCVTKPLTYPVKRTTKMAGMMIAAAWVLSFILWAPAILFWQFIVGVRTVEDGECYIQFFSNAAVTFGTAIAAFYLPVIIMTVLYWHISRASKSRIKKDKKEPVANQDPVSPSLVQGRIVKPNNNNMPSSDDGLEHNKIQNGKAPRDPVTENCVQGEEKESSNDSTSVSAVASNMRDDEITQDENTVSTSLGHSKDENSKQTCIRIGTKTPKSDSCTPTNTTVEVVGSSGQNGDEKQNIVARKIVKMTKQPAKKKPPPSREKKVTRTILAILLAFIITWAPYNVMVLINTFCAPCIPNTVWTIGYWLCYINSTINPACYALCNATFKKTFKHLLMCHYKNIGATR

[3] = molecular target: Muscarinic acetylcholine receptor M1 (Homo sapiens) (UniProt P11229)
[4] = molecular target: Histamine H2 receptor (Homo sapiens) (UniProt P25021)
Histamine H2 receptor (Homo sapiens), sequence (P25021 whole entry): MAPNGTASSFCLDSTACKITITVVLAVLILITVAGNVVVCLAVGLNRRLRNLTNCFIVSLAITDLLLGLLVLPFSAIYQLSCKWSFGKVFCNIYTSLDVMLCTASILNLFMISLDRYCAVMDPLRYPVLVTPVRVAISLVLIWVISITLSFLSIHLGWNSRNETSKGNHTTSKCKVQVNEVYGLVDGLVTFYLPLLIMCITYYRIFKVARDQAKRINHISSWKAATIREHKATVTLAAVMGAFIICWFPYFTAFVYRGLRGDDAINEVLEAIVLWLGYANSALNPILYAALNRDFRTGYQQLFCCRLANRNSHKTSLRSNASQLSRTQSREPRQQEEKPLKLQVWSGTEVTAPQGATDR

Delta-type opioid receptor (Homo sapiens), sequence (P41143 whole entry): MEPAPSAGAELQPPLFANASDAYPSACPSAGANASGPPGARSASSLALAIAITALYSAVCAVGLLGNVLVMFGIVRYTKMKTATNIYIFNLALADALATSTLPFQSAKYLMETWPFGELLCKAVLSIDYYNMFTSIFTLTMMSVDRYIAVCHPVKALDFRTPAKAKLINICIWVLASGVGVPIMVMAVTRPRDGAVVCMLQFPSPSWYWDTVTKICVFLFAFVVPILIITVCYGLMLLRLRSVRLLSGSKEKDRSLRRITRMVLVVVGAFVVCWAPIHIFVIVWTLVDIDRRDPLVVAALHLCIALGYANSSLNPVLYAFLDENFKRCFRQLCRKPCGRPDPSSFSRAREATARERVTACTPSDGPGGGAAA
Muscarinic acetylcholine receptor M1 (Homo sapiens), sequence (P11229 whole entry): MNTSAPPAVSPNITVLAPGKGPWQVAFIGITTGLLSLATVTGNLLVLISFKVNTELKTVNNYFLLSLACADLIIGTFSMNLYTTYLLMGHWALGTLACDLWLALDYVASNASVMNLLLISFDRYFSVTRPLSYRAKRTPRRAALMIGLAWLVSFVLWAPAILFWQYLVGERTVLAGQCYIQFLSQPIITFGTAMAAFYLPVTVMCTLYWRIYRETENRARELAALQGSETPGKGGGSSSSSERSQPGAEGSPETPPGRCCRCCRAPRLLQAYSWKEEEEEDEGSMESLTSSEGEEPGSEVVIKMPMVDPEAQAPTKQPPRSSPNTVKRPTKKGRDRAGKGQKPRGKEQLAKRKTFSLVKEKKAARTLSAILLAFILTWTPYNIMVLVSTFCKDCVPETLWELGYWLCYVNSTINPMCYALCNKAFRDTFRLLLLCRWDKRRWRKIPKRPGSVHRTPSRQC

SMILES	inhibition [1] [%]	residual activity [2] [%]	inhibition [3] [%]	inhibition [4] [%]
CCC(=O)N[C@@H]1CC[C@H](C(=O)N(C)c2ccc(-c3nc4ccccc4o3)cc2)C1 [BI 99990]	-0.0188			
CCC(=O)N[C@H]1CC[C@@H](C(=O)N(C)c2ccc(-c3nc4ccccc4o3)cc2)C1 [BI 99179]		90	3.53	-1.25
